{"source": "patent US20190022253A1", "about": "“UNIT DOSAGE OF APADENOSON” (University of Virginia Patent Foundation, priority 2008, published 2019)", "key": {"patients [1]": {"system": "patients", "test": "Phase II study: coronary blood flow velocity monitored with a flow wire", "format": "in vivo, human", "description": "that can be used in clinical perfusion imaging techniques (e.g., for diagnosing and assessing the extent of coronary artery disease) in U.S. Pat. No. 6,322,771. This agent has since been taken into Phase I and II clinical trials. In 2005, Dr. […] et al reported to the American Heart Association on the preliminary results of 127 patient SPECT Tc^99m sestamibi imaging studying comparing adenosine with Apadenoson using either 1 μg/kg or 2 μg/kg intravenous boluses of Apadenoson. […] In 2006, Dr. Kern et al reported to the American Heart Association the results of a Phase II study of Apadenoson, one goal of which was to determine an appropriate dose for Phase III clinical trials. Intravenous bolus dosages of 0.5, 1.0, 2.0, and 2.5 μg/kg were studied. […] In this Phase II study in 100 patients, conducted by Dr. Morton Kern, an independent investigator at UC Irvine, […] was administered by intracoronary injection, and coronary blood flow velocity was monitored with a flow wire. […] The previously reported increase in coronary blood flow velocity (CBFV) corresponding to an increase in dose of Apadenoson from 0.5 to 2 μg/kg was based on the increase in CBFV in a limited number of patients (see FIG. 1)."}, "patients [2]": {"system": "patients", "settings": "intravenous bolus, dosage from 0.5 to 2 μg/kg; limited number of patients (FIG. 1); Kern et al 2006; cited from earlier work"}}}
{"smiles": "CCNC(=O)[C@H]1O[C@@H](n2cnc3c(N)nc(C#CC[C@H]4CC[C@H](C(=O)OC)CC4)nc32)[C@H](O)[C@@H]1O", "note": "[Apadenoson]", "values": [{"measurement": "dose response curve", "setting": "patients [1]; 1 μg/kg or 2 μg/kg administered", "result": "no dose response curve is seen"}, {"measurement": "dose response of coronary blood flow velocity (CBFV)", "setting": "patients [1]; entire sample of patients (FIG. 2, 33 patients), dose ≥1 μg/kg, in particular between 1 and 2.5 μg/kg", "result": "no dose response is seen"}, {"measurement": "peak flow compared with adenosine", "setting": "patients [1]; increasing bolus doses, one patient (FIG. 1)", "result": "achieved peak flow equivalent to adenosine"}, {"measurement": "average peak velocity for coronary blood flow versus dose", "setting": "patients [2]", "result": "increase with a corresponding increase in dosage"}]}
{"smiles": "Nc1ncnc2c1ncn2[C@@H]1O[C@H](CO)[C@@H](O)[C@H]1O", "note": "[adenosine, reference compound]", "values": [{"measurement": "coronary blood flow velocity", "setting": "patients [1]; three intracoronary injections, one patient (FIG. 1)", "result": "increased blood flow velocity"}]}
